Experimental data reported in ChEMBL document CHEMBL1201862, “PubChem BioAssay data set” (2004).
Calls of active or inactive are those of the source.

What was measured:
HeLa = assay: HeLa cell cytotoxicity, dose response, cytotoxicity control, ATP luminescence, cherry-pick samples (AID 687004); format: functional, cell-based; conditions: Homo sapiens
HEK293 = assay: HEK293T cell cytotoxicity, dose response, cytotoxicity control, ATP luminescence, cherry-pick samples (AID 687005); format: functional, cell-based; conditions: Homo sapiens;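 also: cells exposed to compound for 48 hours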
[1] = HEK293 Cytotoxicity Assay Measured in Cell-Based System Using Plate Reader - 7071-01_Inhibitor_Dose_CherryPick_Activity_Set2.; format: functional
[2] = Late stage counterscreen for inhibitors of Trypanosoma brucei methionyl tRNA synthetase (MetRS): Luminescence-based cell-based high throughput dose response assay to identify compounds that are cytotoxic to Jurkat human T lymphocyte cells.; format: functional
Paired box protein Pax-8 = Paired box protein Pax-8 (Homo sapiens, UniProt Q06710); assay: inhibitors of PAX8-driven TPO luciferase reporter, dose response, RMG-I cells, cherry-pick (AID 687027); format: functional, cell-based;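 also: luciferase reporter driven by Pax8 target thyroperoxidase promoter measured by SteadyGlo luminescence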
[3] = NIH:OVCAR-3 ovarian cancer cell cytotoxicity, dose response, PAX8 inhibitor project, plate reader, dry powder samples (AID 743044); format: functional, cell-based
[4] = IGROV1 ovarian cancer cell cytotoxicity, dose response, PAX8 inhibitor project, plate reader, dry powder samples (AID 743043); format: functional, cell-based; conditions: IGROV-1
[5] = non-specific cell cytotoxicity, dose response, cytotoxicity control for PAX8 inhibitor project, plate reader, dry powder samples (AID 743021); format: functional, cell-based
[6] = cytotoxicity in OVCAR8 ovarian cancer cells, dose response, PAX8 project, cell-based, plate reader, dry powder samples (AID 743197); format: functional; conditions: OVCAR-8

Chain of Paired box protein Pax-8 (Q06710 whole entry): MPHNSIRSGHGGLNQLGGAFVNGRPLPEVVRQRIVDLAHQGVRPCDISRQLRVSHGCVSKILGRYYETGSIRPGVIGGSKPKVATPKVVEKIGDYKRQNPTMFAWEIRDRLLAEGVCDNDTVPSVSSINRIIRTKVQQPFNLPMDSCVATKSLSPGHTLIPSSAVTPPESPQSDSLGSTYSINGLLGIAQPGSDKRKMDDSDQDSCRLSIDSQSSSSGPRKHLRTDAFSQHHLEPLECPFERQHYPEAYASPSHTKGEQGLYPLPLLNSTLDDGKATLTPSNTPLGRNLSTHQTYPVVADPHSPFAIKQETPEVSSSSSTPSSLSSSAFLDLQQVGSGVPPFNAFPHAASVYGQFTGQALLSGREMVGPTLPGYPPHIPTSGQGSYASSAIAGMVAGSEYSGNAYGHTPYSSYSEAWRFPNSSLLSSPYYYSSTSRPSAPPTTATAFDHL

C[C@@H]1CN([C@H](C)CO)S(=O)(=O)c2ccc(C#Cc3ccc(F)cc3)cc2O[C@H]1CN(C)C(=O)NC1CCCC1
active: AC50 (HeLa) 34.7 µM | AC50 (HEK293) 4.91 µM | AC50 [1] 4.91 µM

O=C(CC=NOCc1ccc([N+](=O)[O-])cc1)Nc1ccc(Cl)cc1
inactive: IC50 [2] > 83.3 µM

C[C@@H]1CCCCO[C@H](CN(C)Cc2ccc(C(F)(F)F)cc2)[C@@H](C)CN([C@@H](C)CO)C(=O)c2cc(NC(=O)c3ccccc3)ccc2O1
active: AC50 (Paired box protein Pax-8) 6.57 µM | AC50 [3] 10.8 µM | AC50 [4] 26.2 µM | AC50 [5] 52.2 µM | AC50 [6] 21.5 µM
